# Measurements as given in ChEMBL document CHEMBL1201862, “PubChem BioAssay data set” (2004).
#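 A five-concentration, 48-hour dose response in 96-well plates underlies each endpoint, interpolated linearly between surrounding concentrations. GI50: concentration for 50% inhibition of growth.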 Calls of active or inactive are those of the source. Cut-off read from the data, not from the text of the source: active = GI50 up to about 1.1 µM and inactive = higher.
# Assays:
# Test in all cases: NCI tumour cell line growth inhibition, 48 h
# HOP-92 = test system: HOP-92
# M14 = test system: M14
# SF-268 = test system: SF-268
# HT-29 = test system: HT-29
# COLO 205 = test system: COLO 205
# RXF 393 = test system: RXF 393
# HCC 2998 = test system: HCC 2998
# UACC-257 = test system: UACC-257
# LOX IMVI = test system: LOX IMVI
# EKVX = test system: EKVX
# LXFL 529 = test system: LXFL 529
# OVCAR-4 = test system: OVCAR-4
# SW-620 = test system: SW-620
# OVCAR-3 = test system: OVCAR-3
# 786-0 = test system: 786-0
# IGROV-1 = test system: IGROV-1
SMILES,GI50 (HOP-92),GI50 (M14),GI50 (SF-268),GI50 (HT-29),GI50 (COLO 205),GI50 (RXF 393),GI50 (HCC 2998),GI50 (UACC-257),GI50 (LOX IMVI),GI50 (EKVX),GI50 (LXFL 529),GI50 (OVCAR-4),GI50 (SW-620),GI50 (OVCAR-3),GI50 (786-0),GI50 (IGROV-1)
COc1cccc(NC(=O)C(=O)C(C(C)=O)c2nc3ccc(Cl)cc3nc2O)c1 (centres undefined),> 100 µM (inactive),> 100 µM (inactive),> 100 µM (inactive),> 100 µM (inactive),> 100 µM (inactive),> 100 µM (inactive),> 100 µM (inactive),> 100 µM (inactive),> 100 µM (inactive),> 100 µM (inactive),> 100 µM (inactive),> 100 µM (inactive),> 100 µM (inactive),> 100 µM (inactive),> 100 µM (inactive),> 100 µM (inactive)
Nc1ncnc2c1nnn2C1C=C(CO)C(O)C1O (centres undefined),14.3 µM (inactive),> 52.2 µM (inactive),42.7 µM (inactive),35.3 µM (inactive),> 36 µM (inactive),> 77.1 µM (inactive),22.5 µM (inactive),> 100 µM (inactive),38.6 µM (inactive),> 100 µM (inactive),> 100 µM (inactive),32.4 µM (inactive),29.4 µM (inactive),> 100 µM (inactive),53.2 µM (inactive),> 100 µM (inactive)
O=C1CCC(=O)c2sccc2N1,> 100 µM (inactive),> 100 µM (inactive),> 100 µM (inactive),> 100 µM (inactive),> 100 µM (inactive),> 100 µM (inactive),> 100 µM (inactive),> 100 µM (inactive),> 100 µM (inactive),> 100 µM (inactive),> 100 µM (inactive),> 100 µM (inactive),> 100 µM (inactive),> 100 µM (inactive),> 100 µM (inactive),> 100 µM (inactive)
CC(C)(c1ccc(C=O)o1)c1ccc(C(C)(C)c2ccc(C=O)o2)o1,69.5 µM (inactive),–,> 100 µM (inactive),> 100 µM (inactive),> 100 µM (inactive),> 100 µM (inactive),> 100 µM (inactive),> 100 µM (inactive),> 100 µM (inactive),> 100 µM (inactive),> 100 µM (inactive),> 100 µM (inactive),> 100 µM (inactive),–,> 100 µM (inactive),> 100 µM (inactive)
O=C(C(=O)c1ccc(Cc2ccc(C(=O)C(=O)c3ccccc3)cc2)cc1)c1ccccc1,> 100 µM (inactive),> 100 µM (inactive),> 100 µM (inactive),> 100 µM (inactive),> 100 µM (inactive),> 100 µM (inactive),> 100 µM (inactive),> 100 µM (inactive),> 100 µM (inactive),> 100 µM (inactive),> 100 µM (inactive),> 100 µM (inactive),> 100 µM (inactive),> 100 µM (inactive),> 100 µM (inactive),> 100 µM (inactive)
N#CCc1ccc(C(C#N)/C(CCCC(=O)Nc2cccc([N+](=O)[O-])c2)=N/NC(N)=S)cc1 (centres undefined),83.8 µM (inactive),> 100 µM (inactive),> 100 µM (inactive),> 100 µM (inactive),> 100 µM (inactive),> 100 µM (inactive),> 100 µM (inactive),> 100 µM (inactive),63.1 µM (inactive),36.6 µM (inactive),92 µM (inactive),> 100 µM (inactive),> 100 µM (inactive),75.3 µM (inactive),> 100 µM (inactive),> 100 µM (inactive)
O=C(N/C(=C\c1ccccc1O)c1nc2ccccc2[nH]1)c1ccccc1,23.8 µM (inactive),> 100 µM (inactive),37.3 µM (inactive),> 100 µM (inactive),> 100 µM (inactive),> 100 µM (inactive),> 100 µM (inactive),> 100 µM (inactive),42.1 µM (inactive),37.8 µM (inactive),51.2 µM (inactive),> 100 µM (inactive),> 100 µM (inactive),> 100 µM (inactive),48.1 µM (inactive),> 100 µM (inactive)
N#CC(C#N)C(c1ccccc1)c1ccccc1,> 100 µM (inactive),> 100 µM (inactive),> 100 µM (inactive),–,> 100 µM (inactive),> 100 µM (inactive),> 100 µM (inactive),> 100 µM (inactive),> 100 µM (inactive),–,> 100 µM (inactive),> 100 µM (inactive),> 100 µM (inactive),> 100 µM (inactive),> 100 µM (inactive),> 100 µM (inactive)
CC(=O)c1cccc(N2COC(C)(C)c3nc4ccccc4n3C2)c1,> 100 µM (inactive),> 100 µM (inactive),> 100 µM (inactive),> 100 µM (inactive),> 100 µM (inactive),> 100 µM (inactive),> 100 µM (inactive),> 100 µM (inactive),> 100 µM (inactive),> 100 µM (inactive),> 100 µM (inactive),14.3 µM (inactive),> 100 µM (inactive),> 100 µM (inactive),> 100 µM (inactive),> 100 µM (inactive)
COc1ccc2c(c1)C=C(C(C)(C)C)NS2(=O)=O,> 100 µM (inactive),> 100 µM (inactive),> 100 µM (inactive),> 100 µM (inactive),> 100 µM (inactive),> 100 µM (inactive),> 100 µM (inactive),> 100 µM (inactive),> 100 µM (inactive),> 100 µM (inactive),> 100 µM (inactive),> 100 µM (inactive),> 100 µM (inactive),> 100 µM (inactive),> 100 µM (inactive),> 100 µM (inactive)
CC1(C)COC(c2cccc3c2C(=O)c2cccc(Cl)c2-3)=N1,–,47.9 µM (inactive),56.5 µM (inactive),32 µM (inactive),42.9 µM (inactive),22.7 µM (inactive),29.7 µM (inactive),33.7 µM (inactive),51.9 µM (inactive),38.3 µM (inactive),37.7 µM (inactive),44.1 µM (inactive),37.8 µM (inactive),78.2 µM (inactive),39.4 µM (inactive),> 100 µM (inactive)
CS/C(=N/C#N)NCCc1c[nH]c2ccccc12,–,> 100 µM (inactive),> 100 µM (inactive),98.4 µM (inactive),> 100 µM (inactive),> 100 µM (inactive),> 100 µM (inactive),> 100 µM (inactive),> 100 µM (inactive),18 µM (inactive),> 100 µM (inactive),> 100 µM (inactive),> 100 µM (inactive),> 100 µM (inactive),45.6 µM (inactive),> 100 µM (inactive)
CCOC(=O)C1=NC(c2ccccc2)(c2ccccc2)OC1=C(Cl)Cl,35.4 µM (inactive),85.9 µM (inactive),> 100 µM (inactive),32.4 µM (inactive),> 100 µM (inactive),0.879 µM (active),18.5 µM (inactive),32.4 µM (inactive),46 µM (inactive),35.5 µM (inactive),65.5 µM (inactive),63 µM (inactive),82.4 µM (inactive),42.2 µM (inactive),> 100 µM (inactive),> 100 µM (inactive)
CCOc1ccc(NC(=O)C2=C(C)NC(C)=C(C(=O)Nc3ccc(OCC)cc3)C2c2ccccc2)cc1,> 100 µM (inactive),> 100 µM (inactive),98.6 µM (inactive),> 100 µM (inactive),> 100 µM (inactive),> 100 µM (inactive),> 100 µM (inactive),> 100 µM (inactive),> 100 µM (inactive),> 100 µM (inactive),51.3 µM (inactive),> 100 µM (inactive),> 100 µM (inactive),> 100 µM (inactive),88.7 µM (inactive),> 100 µM (inactive)
CC1(C)CCC[C@@]2(C)C1CCC1(C)C(CCc3ccoc3)/C(=C/OS(=O)(=O)O)CCC12 (some centres undefined),23.9 µM (inactive),42.7 µM (inactive),> 100 µM (inactive),40.9 µM (inactive),54.6 µM (inactive),61.9 µM (inactive),> 100 µM (inactive),> 100 µM (inactive),> 100 µM (inactive),> 100 µM (inactive),50 µM (inactive),52.5 µM (inactive),54.3 µM (inactive),> 100 µM (inactive),> 100 µM (inactive),> 100 µM (inactive)
O=S(O)CCCSSc1ccccc1,–,37.1 µM (inactive),18.7 µM (inactive),46.9 µM (inactive),43.4 µM (inactive),22.9 µM (inactive),76.9 µM (inactive),40.2 µM (inactive),29.3 µM (inactive),36.1 µM (inactive),32.5 µM (inactive),98.4 µM (inactive),47.3 µM (inactive),53.8 µM (inactive),66.8 µM (inactive),14.7 µM (inactive)
Cc1nc(Nc2ccccc2)sc1C(=O)NNc1ccc([N+](=O)[O-])cc1[N+](=O)[O-],–,38.9 µM (inactive),75.5 µM (inactive),35 µM (inactive),30.3 µM (inactive),35.2 µM (inactive),43.7 µM (inactive),43.5 µM (inactive),21.4 µM (inactive),18.9 µM (inactive),28.7 µM (inactive),29.6 µM (inactive),39.9 µM (inactive),34.4 µM (inactive),27.9 µM (inactive),45.9 µM (inactive)
